Values after ≈ are worked out from the molar mass of the structure shown.
How the values were obtained:
[1] = molecular target: T1, C-X-C chemokine receptor type 3 (Homo sapiens, UniProt P49682); experiment: Antagonist activity at CXCR3 (unknown origin) assessed as reduction in CXCL10 induced calcium flux by flow cytometry
T1 sequence (P49682 whole entry): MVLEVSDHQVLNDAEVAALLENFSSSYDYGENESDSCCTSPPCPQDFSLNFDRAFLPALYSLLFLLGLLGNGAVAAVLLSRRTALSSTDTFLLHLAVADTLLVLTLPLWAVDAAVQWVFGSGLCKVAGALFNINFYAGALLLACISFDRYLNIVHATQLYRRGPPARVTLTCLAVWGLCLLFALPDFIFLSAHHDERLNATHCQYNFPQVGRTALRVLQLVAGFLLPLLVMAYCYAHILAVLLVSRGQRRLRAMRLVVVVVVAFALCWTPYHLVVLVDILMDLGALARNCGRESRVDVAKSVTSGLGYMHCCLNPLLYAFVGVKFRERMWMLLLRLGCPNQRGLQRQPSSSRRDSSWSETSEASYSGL

[2] = Clearance in rat at 10 mg/kg, po or 0.2 mg/kg, iv; assay type: ADME, organism-based; settings: in vivo
[3] = Volume of distribution in mouse at 10 mg/kg. po or 0.2 mg/kg, iv; assay type: ADME, organism-based; settings: in vivo
[4] = molecular target: T1, C-X-C chemokine receptor type 3; experiment: Antagonist activity at CXCR3 (unknown origin) assessed as reduction in CXCL10 induced calcium flux by [35S]GTPgammaS binding assay
[5] = molecular target: T1, C-X-C chemokine receptor type 3; experiment: Antagonist activity at CXCR3 (unknown origin) assessed as reduction in CXCL11 induced calcium flux by FLIPR method
[6] = molecular target: T1, C-X-C chemokine receptor type 3; experiment: Antagonist activity at CXCR3 (unknown origin) assessed as reduction in CXCL10 induced calcium flux by FLIPR method
[7] = molecular target: T1, C-X-C chemokine receptor type 3; experiment: Displacement of [125I]-CXCL10 from CXCR3 in human PBMC cells; assay type: cell-based
[8] = AUC in rat at 10 mg/kg, po; assay type: ADME, organism-based; set-up: dose 10 mg/kg, route po; settings: in vivo
[9] = AUC in mouse at 10 mg/kg, po; assay type: ADME, organism-based; set-up: dose 10 mg/kg, route po; settings: in vivo
[10] = molecular target: T1, C-X-C chemokine receptor type 3; experiment: Displacement of [125I]-CXCL10 from CXCR3 in human PBMC cells by scintillation proximity assay; assay type: cell-based
[11] = Half life in rat at 2.0 mg/kg, po or 0.5 mg/kg, iv; assay type: ADME, organism-based; settings: in vivo
[12] = molecular target: T1, C-X-C chemokine receptor type 3; experiment: Antagonist activity at CXCR3 (unknown origin) assessed as reduction in CXCL11 induced calcium flux by flow cytometry
[13] = molecular target: T1, C-X-C chemokine receptor type 3; experiment: Antagonist activity at human CXCR3 assessed as reduction in CXCL11 induced calcium flux by [35S]GTPgammaS binding assay
[14] = Lipophilicity, logD of compound at pH 7.4; assay type: physicochemical; settings: buffer
[15] = Intrinsic clearance in mouse liver microsomes; assay type: ADME, Microsome
[16] = Oral bioavailability in mouse at 10 mg/kg; assay type: ADME, organism-based; settings: in vivo
[17] = Clearance in rat at 10 mg/kg, po or 5 mg/kg, iv; assay type: ADME, organism-based; settings: in vivo
[18] = Half life in mouse at 10 mg/kg, po or 5 mg/kg, iv; assay type: ADME, organism-based; settings: in vivo
[19] = Clearance in mouse at 30 mg/kg, po; assay type: ADME, organism-based; settings: in vivo
[20] = Oral bioavailability in mouse at 30 mg/kg; assay type: ADME, organism-based; settings: in vivo
[21] = molecular target: T2, C-X-C chemokine receptor type 3 (Mus musculus, UniProt O88410); experiment: […] of CXCR3 receptor internalization in mouse whole blood in presence of CXCl10 by flow cytometry; assay type: tissue-based
T2 sequence (O88410 whole entry): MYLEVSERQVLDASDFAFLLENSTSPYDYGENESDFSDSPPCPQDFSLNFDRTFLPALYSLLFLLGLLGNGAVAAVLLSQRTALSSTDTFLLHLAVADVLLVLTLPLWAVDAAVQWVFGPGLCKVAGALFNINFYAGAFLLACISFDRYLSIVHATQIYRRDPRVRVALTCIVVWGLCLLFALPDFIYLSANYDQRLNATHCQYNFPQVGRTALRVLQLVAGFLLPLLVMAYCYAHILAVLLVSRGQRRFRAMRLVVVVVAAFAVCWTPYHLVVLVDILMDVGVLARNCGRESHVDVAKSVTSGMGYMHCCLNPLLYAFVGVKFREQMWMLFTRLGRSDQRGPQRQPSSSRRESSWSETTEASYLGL

[22] = molecular target: T1, C-X-C chemokine receptor type 3; experiment: Antagonist activity at CXCR3 (unknown origin)
[23] = molecular target: T3, C-X-C chemokine receptor type 2 (Homo sapiens, UniProt P25025); experiment: Antagonist activity at CXCR2 (unknown origin)
T3 sequence (P25025 whole entry): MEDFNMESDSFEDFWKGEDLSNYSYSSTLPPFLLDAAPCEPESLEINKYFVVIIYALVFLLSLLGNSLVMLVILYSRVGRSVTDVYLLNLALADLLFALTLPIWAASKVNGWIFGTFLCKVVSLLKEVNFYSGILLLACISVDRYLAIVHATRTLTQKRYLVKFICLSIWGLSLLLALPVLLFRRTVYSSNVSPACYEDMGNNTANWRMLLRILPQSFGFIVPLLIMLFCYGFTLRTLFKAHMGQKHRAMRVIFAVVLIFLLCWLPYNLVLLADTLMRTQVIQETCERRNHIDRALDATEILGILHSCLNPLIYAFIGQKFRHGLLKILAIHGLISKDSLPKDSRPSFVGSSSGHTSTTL

[24] = molecular target: C-C chemokine receptor type 4 (Homo sapiens) (UniProt P51679); experiment: Antagonist activity at CCR4 (unknown origin)
Chain of C-C chemokine receptor type 4 (Homo sapiens) (P51679 whole entry, looked up): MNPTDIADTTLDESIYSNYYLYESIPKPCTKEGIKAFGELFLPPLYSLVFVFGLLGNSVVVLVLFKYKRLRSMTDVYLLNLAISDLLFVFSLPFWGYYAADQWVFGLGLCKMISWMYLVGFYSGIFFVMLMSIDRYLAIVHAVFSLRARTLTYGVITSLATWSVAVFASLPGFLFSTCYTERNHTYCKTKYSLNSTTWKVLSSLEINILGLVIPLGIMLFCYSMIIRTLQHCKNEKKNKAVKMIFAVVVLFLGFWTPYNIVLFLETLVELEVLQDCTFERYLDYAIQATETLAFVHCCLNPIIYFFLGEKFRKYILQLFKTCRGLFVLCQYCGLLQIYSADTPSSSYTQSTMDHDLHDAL

[25] = molecular target: C-C chemokine receptor type 6 (Homo sapiens) (UniProt P51684); experiment: Antagonist activity at CCR6 (unknown origin)
Chain of C-C chemokine receptor type 6 (Homo sapiens) (P51684 whole entry, looked up): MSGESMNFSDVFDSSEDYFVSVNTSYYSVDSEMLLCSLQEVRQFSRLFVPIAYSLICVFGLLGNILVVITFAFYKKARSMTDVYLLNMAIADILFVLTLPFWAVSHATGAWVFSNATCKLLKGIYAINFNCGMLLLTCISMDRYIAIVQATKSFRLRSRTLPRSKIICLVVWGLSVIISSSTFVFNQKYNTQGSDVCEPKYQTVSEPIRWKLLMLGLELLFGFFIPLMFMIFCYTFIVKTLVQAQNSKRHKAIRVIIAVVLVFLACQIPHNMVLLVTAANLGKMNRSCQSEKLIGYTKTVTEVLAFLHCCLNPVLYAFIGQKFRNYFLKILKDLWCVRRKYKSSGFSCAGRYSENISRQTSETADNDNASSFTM

[26] = molecular target: C-C chemokine receptor type 7 (Homo sapiens) (UniProt P32248); experiment: Antagonist activity at CCR7 (unknown origin)
Chain of C-C chemokine receptor type 7 (Homo sapiens) (P32248 whole entry, looked up): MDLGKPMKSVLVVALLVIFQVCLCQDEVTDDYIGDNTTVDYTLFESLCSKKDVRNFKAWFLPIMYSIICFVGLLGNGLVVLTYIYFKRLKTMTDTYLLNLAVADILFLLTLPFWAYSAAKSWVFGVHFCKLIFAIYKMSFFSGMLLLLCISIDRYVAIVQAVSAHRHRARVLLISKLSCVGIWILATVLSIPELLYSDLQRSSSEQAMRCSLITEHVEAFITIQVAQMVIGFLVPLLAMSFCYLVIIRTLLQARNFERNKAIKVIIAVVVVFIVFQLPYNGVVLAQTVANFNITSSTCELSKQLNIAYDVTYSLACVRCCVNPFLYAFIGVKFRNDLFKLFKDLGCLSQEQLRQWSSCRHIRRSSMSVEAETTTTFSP

[27] = molecular target: C-X-C chemokine receptor type 3 (Homo sapiens) (UniProt P49682); experiment: Inhibition of CXCR3 at 20 to 50 uM relative to control
hERG (KCNH2) [28] = molecular target: T4, hERG (KCNH2) (Homo sapiens, UniProt Q12809); experiment: Inhibition of hERG at 3 uM relative to control; assay type: toxicity
T4 sequence (Q12809 whole entry): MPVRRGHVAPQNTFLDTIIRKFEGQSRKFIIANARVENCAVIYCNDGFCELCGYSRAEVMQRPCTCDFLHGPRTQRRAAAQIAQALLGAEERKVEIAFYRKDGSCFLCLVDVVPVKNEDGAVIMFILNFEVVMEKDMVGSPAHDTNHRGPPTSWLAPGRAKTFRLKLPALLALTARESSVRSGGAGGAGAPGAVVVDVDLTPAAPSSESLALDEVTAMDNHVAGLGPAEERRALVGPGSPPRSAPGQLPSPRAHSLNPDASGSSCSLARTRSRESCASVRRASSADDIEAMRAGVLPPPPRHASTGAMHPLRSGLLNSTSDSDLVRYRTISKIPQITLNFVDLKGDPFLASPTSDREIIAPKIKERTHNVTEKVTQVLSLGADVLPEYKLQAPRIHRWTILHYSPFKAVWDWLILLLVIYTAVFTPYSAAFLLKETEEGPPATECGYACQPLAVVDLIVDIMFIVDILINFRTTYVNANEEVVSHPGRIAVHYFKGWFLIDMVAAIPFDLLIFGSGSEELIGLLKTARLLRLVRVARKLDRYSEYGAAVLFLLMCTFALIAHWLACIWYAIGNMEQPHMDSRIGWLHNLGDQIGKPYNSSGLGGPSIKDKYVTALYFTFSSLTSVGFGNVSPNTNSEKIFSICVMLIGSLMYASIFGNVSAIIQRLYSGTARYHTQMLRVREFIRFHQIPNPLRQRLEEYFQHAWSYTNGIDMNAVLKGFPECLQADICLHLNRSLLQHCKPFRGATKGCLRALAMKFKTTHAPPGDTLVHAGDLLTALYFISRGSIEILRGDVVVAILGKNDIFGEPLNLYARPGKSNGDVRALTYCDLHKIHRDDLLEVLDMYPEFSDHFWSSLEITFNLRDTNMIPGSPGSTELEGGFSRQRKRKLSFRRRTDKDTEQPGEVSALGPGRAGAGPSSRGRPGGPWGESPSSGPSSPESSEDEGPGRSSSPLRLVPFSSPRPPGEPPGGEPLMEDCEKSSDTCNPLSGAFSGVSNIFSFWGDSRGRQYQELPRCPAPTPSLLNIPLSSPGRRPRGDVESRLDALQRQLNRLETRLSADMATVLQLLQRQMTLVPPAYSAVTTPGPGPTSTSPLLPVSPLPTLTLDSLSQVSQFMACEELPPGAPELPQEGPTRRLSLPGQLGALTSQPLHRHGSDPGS

[29] = Solubility of compound; assay type: physicochemical
[30] = molecular target: Voltage-gated inwardly rectifying potassium channel KCNH2 (Homo sapiens, UniProt Q12809); experiment: Inhibition of hERG; assay type: toxicity
Chain of Voltage-gated inwardly rectifying potassium channel KCNH2 (Q12809 whole entry): as above

hERG (KCNH2) [31] = molecular target: T4, hERG (KCNH2); experiment: Inhibition of hERG at 10 uM relative to control; assay type: toxicity
[32] = AUC in rat at 2 mg/kg, po; assay type: ADME, organism-based; set-up: dose 2 mg/kg, route po; settings: in vivo

## N#Cc1ccc(S(=O)(=O)N(Cc2ccc(-c3nnn[nH]3)c(F)c2)Cc2ccccc2F)cc1
[1]
  IC50: 200 nM
[2]
  clearance: 1.7 L/h/kg
[3]
  Vd: 1 L/kg

## CC(=O)Nc1cccc(/C(C)=N\NC(=O)c2ccc(CN(Cc3ccccc3)S(=O)(=O)c3ccc(Cl)cc3)cc2)c1
[1]
  IC50: 501 nM
[4]
  IC50: 100 nM
[5]
  Ki: 200 nM
[6]
  Ki: 6.5 µM

## N=C(Nc1ccc(I)cc1)NC1C2CC3CC(C2)CC1C3 (stereo not drawn)
[7]
  Ki: 158 nM

## CCNC(=O)c1cnc(N2CCN(C3CCN(Cc4ccc(Cl)cc4F)CC3)[C@@H](CC)C2)c(Cl)c1
[7]
  Ki: 0.316 nM
[8]
  AUC: 0.95 µM·h

## CC[C@H]1CN(c2nc(N)c(C(N)=O)nc2Cl)CCN1C1CCN(Cc2ccc(Cl)cc2)CC1
[7]
  Ki: 0.794 nM
[9]
  AUC: 5.1 µM·h

## C[C@H](c1nc2ncccc2c(=O)n1-c1ccc(Cl)cc1)N(CC1CCS(=O)(=O)CC1)C(=O)Cc1ccc(F)c(C(F)(F)F)c1
[10]
  IC50: 6.31 nM
[5]
  IC50: 5.01 nM
[11]
  half-life: 240 min

## C[C@H](c1nc2ncccc2c(=O)n1-c1ccc(Cl)cc1)N(CC1CCS(=O)(=O)CC1)C(=O)Cc1ccc(C(F)(F)F)c(F)c1
[10]
  IC50: 6.31 nM

## CCCCCCCCCC(=O)N(CCN(C)C)C(C)c1nc2ccccc2c(=O)n1-c1ccc(F)cc1 (stereo not drawn)
[5]
  IC50: 398 nM

## CCNC(=O)N1CCCN(c2ccc(C(=O)NCCc3ccc(Cl)cc3Cl)cc2NC(=O)c2cccc(Cl)c2)CC1
[12]
  pIC50: 7
[5]
  IC50: 63.1 nM

## CC1(C)[C@H]2CC=C(CN3CCC(Nc4nc(-c5cc(C(F)(F)F)cc(C(F)(F)F)c5)ns4)CC3)[C@@H]1C2
[13]
  Ki: 251 nM
[14]
  logD: 5
[15]
  CLH: 16 µL/min/kg

## Cc1cccc2c1n(C)c(=N)n2CC(=O)c1ccc(Cl)cc1
[16]
  bioavailability: 57%
[17]
  clearance: 5.7 L/h/kg
[18]
  half-life: 294 min

## CC(=O)N1C2C=C(CN3[C@@H]4CC[C@H]3C[C@H](Nc3ccc5ccc(OC(C)C)cc5n3)C4)CC1CCC2
[14]
  logD: 2.9
[15]
  CLint: 9 µL/min/mg
[19]
  CL/F: 9 mL/min/kg
[20]
  bioavailability: 69%

## CC(=O)c1nc2ccccc2n1CC(=O)c1ccc([N+](=O)[O-])cc1
[7]
  IC50: 3160 nM

## COc1cc(CN(C[C@H]2CC[C@H](C(=O)O)CC2)[C@H]2CCc3cc(Cl)ccc32)ccc1OCCN1C(=O)CCC1=O
[7]
  IC50: 12.6 nM

## CCNC(=O)N1CCCN(c2ccc(C(=O)NC(C)C)cc2NC(=O)c2cccc(Cl)c2)CC1
[5]
  IC50: 2000 nM

## C[C@H]1CN(c2scnc2-c2nc3ccccc3[nH]2)CCN1C(=O)Cn1ccc2cccnc21
[21]
  IC50: 398 nM

## Cc1ccc(C(Nc2c(Nc3cccc(C(=O)N(C)C)c3O)c(=O)c2=O)C2(C)CCCO2)o1 (stereo not drawn)
[22]
  IC50: 1.26 nM
[23]
  IC50: 63.1 nM
[24]
  IC50: 398 nM
[25]
  IC50: 2 nM
[26]
  IC50: 7.94 nM

## O=C(Nc1ccccc1)N1CCCC(c2ccccc2)(C2CCN(Cc3ccc(Br)cc3)CC2)C1 (stereo not drawn)
[4]
  IC50: 31.6 nM

## CC[C@H](C)C[C@H](C)C[C@H](C)[C@@H](O[C@@H]1O[C@H](COC(C)=O)[C@@H](O)[C@@H](O)[C@@H]1O)[C@@H](C)/C=C(\C)[C@@H](O)[C@@H](C)/C=C(\C)[C@@H](O)[C@@H](C)/C=C(\C)C(=O)OC[C@@H](O)[C@H](O)[C@H](O)CO
[7]
  IC50: 15800 nM

## O=C(Nc1ccc2ccccc2c1)NC1CCN(CC2=CCCCCC2)CC1
[13]
  Ki: 100 nM

## CCN(CC)C(=O)[C@@H]1C=C2C3C=CCc4[nH]cc(c43)C[C@H]2N(C(=O)Nc2ccccc2)C1 (stereo partly drawn)
[5]
  IC50: 20 nM
[7]
  IC50: 50.1 nM

## Cc1ccc(C(=O)N2CCN(CC(=O)Nc3cc(-c4ccccc4)sc3C(N)=O)CC2)cc1
[27]
  inhibition at 50 µM: 50%

## CC[C@H]1CN(c2ncc(C(N)=O)nc2C)CCN1C1CCN(Cc2ccc(Cl)nc2N)CC1
hERG (KCNH2) [28]
  inhibition at 3 µM: 0%

## CC(=O)N1C2C=C(CN3[C@@H]4CC[C@H]3C[C@H](NC(=O)Nc3cc(F)cc(C(F)(F)F)c3)C4)CC1CCC2
[13]
  Ki: 6.31 nM
[29]
  solubility: 40 µg/mL (≈ 78.7 µM)
[14]
  logD: 3.1

## O=C(Cn1c(=O)[nH]c2ccccc21)N1CCN(c2ncc(Cl)cc2-c2cnc(N3CCC(O)CC3)nc2)CC1
[30]
  IC50: 31.6 µM

## C[C@@H]1CC[C@@]2(OC1)OC1CC3C4CC=C5[C@@H](O[C@@H]6O[C@H](CO)[C@@H](O[C@H]7O[C@H](C)[C@@H](O)[C@H](O)[C@@H]7O)[C@@H](O)[C@H]6O[C@H]6O[C@@H](C)[C@@H](O)[C@H](O)[C@@H]6O)CCC[C@]5(C)C4CC[C@]3(C)C1[C@@H]2C (stereo partly drawn)
[7]
  IC50: 501 nM

## CCNc1nnc(-c2cnc(N3C[C@H](CC)N(C4CCN(Cc5ccc(Cl)cc5)CC4)C[C@H]3C)c(C)n2)o1
hERG (KCNH2) [31]
  inhibition at 10 µM: 25%

## CNc1ncc(-c2cc(C(F)(F)F)ccc2N2CCN(C(=O)Cn3nc(C)cc3C)CC2)cn1
[32]
  AUC: 271 ng·h/mL

## N#Cc1ccc(CN2CCC(N3CCN(c4ncc(C(=O)NCCOc5ccccc5)cc4Cl)CC3)CC2)cc1
[7]
  Ki: 100 nM
